Results on 20 compounds are retold here after US11753399B2, “Therapeutic compounds” (Gilead Sciences, Inc., priority 2018, dated 2023).

A value given as a limit tells only on which side of the number the result lay.

One may read the inhibition as the drop in the measured response relative to a control, in per cent. Broadly, the CC50 is the concentration giving 50% cytotoxicity. The low end stands for harm at low concentration, the high end for better tolerance by the cells.

One data set relates to HIV-IIIb. The experiment in a line: Test A: Antiviral Assay in MT4 Cells. The settings on record: Human immunodeficiency virus 1, MT4, 120 h, inhibition of virus-induced cell killing, MT-4 cells, HIV-IIIb, 5 days, values normalized to 100%; for inhibition at 0.01 µM: from dose response curve at 0.01 μM (10 nM), read-out: % inhibition at 0.01 μM; for inhibition at 0.2 µM: from dose response curve at 0.20 μM (200 nM), read-out: % inhibition at 0.20 μM. In kind it is cell-based, HIV-1. As for the experimental part: (§1) MT-4 cells were next mixed with HIV-IIIb at a multiplicity of infection (m.o.i.) of 0.003 for 1 hour, after which time 35 μL of virus/cell mixture (2000 cells) was immediately added to each well containing 40 μL of diluted compound. The plates were then incubated at 37° C. for 5 days. After 5 days of incubation, 25 μl of 2× concentrated CellTiter-Glo Reagent (catalog #G7571, Promega Biosciences, Inc., Madison, Wis.) was added to each well containing MT-4 cells. Cell lysis was carried out by incubating at room temperature for 10 min and then chemiluminescence was read.

Data set [1] is described as follows: Test B: Cytotoxicity Assay (same protocol as Test A, uninfected cells). In kind it is cell-based. The settings on record: human, uninfected MT-4 cells, CellTiter-Glo. The protocol: as §1, with “read. […] Compound cytotoxicity and the corresponding CC50 values was determined using the same protocol as described in the antiviral assay (Test A) except that uninfected cells were used.” for “read.”

Regarding `Cn1nc(NS(=O)(=O)C2(C)CC2)c2c(Cl)ccc(-c3ccc(C#CC(C)(C)S(=O)(=O)C4CC4)nc3[C@H](Cc3cc(F)cc(F)c3)NC(=O)Cn3nc(C(F)F)c4c3C(F)(F)[C@@H]3C[C@H]43)c21` [Example 20], in the data set with HIV-IIIb, the inhibition at 0.01 µM was 89% and the inhibition at 0.2 µM was 89%. In data set [1], this compound showed a CC50 at 5 days of more than 57.1 µM.
On to `Cn1nc(NS(=O)(=O)C2(C)CC2)c2c(Cl)ccc(-c3ccc(C#CC(C)(C)S(=O)(=O)C4CC4)nc3[C@H](Cc3cc(F)cc(F)c3)NC(=O)Cn3nc(C(F)(F)F)c4c3C(F)(F)[C@@H]3C[C@H]43)c21` [Example 21], for which, in the data set on HIV-IIIb, the inhibition at 0.01 µM came to 100% and the inhibition at 0.2 µM was determined as 100%. For the same compound, in data set [1], the CC50 at 5 days is more than 57.1 µM.
Take `CC1(S(=O)(=O)Nc2nn(CC(F)F)c3c(-c4ccc(C#CC(C)(C)S(=O)(=O)C5CC5)nc4[C@H](Cc4cc(F)cc(F)c4)NC(=O)Cn4nc(C(F)(F)F)c5c4C(F)(F)[C@@H]4C[C@H]54)ccc(Cl)c23)CC1` [Example 22]: in the data set with HIV-IIIb, the inhibition at 0.01 µM was found to be 94% and the inhibition at 0.2 µM stood at 94%. The compound further yielded a CC50 at 5 days in data set [1] of more than 57.1 µM.
Regarding `CC(C)(C#Cc1ccc(-c2ccc(Cl)c3c(NS(=O)(=O)C4CC4)nn(CC(F)F)c23)c([C@H](Cc2cc(F)cc(F)c2)NC(=O)Cn2nc(C(F)(F)F)c3c2C(F)(F)[C@@H]2C[C@H]32)n1)S(=O)(=O)C1CC1` [Example 23], in the data set on HIV-IIIb, the inhibition at 0.01 µM was determined as 100% and the inhibition at 0.2 µM turned out to be 100%. Also, in data set [1], the half-maximal cytotoxic concentration (CC50) at 5 days is more than 57.1 µM.
For `CC(C)(C#Cc1ccc(-c2ccc(Cl)c3c(NS(=O)(=O)CC4CC4)nn(CC(F)F)c23)c([C@H](Cc2cc(F)cc(F)c2)NC(=O)Cn2nc(C(F)F)c3c2C(F)(F)[C@@H]2C[C@H]32)n1)S(=O)(=O)C1CC1` [Example 26], in the data set with HIV-IIIb, the inhibition at 0.01 µM was 100% and the inhibition at 0.2 µM was 100%. The same compound registered a CC50 at 5 days in data set [1] of more than 57.1 µM.
`CC(C)(C#Cc1ccc(-c2ccc(Cl)c3c(NS(=O)(=O)CC4CC4)nn(CC(F)F)c23)c([C@H](Cc2cc(F)cc(F)c2)NC(=O)Cn2nc(C(F)(F)F)c3c2C(F)(F)[C@@H]2C[C@H]32)n1)S(=O)(=O)C1CC1` [Example 27]: in the data set on HIV-IIIb, the inhibition at 0.01 µM turned out to be 100% and the inhibition at 0.2 µM was 100%. This compound had a CC50 at 5 days in data set [1] of more than 57.1 µM.
Regarding `Cn1nc(Nc2nnc(C3(O)CC3)o2)c2c(Cl)ccc(-c3ccc(C#CC(C)(C)S(=O)(=O)C4CC4)nc3[C@H](Cc3cc(F)cc(F)c3)NC(=O)Cn3nc(C(F)F)c4c3C(F)(F)[C@@H]3C[C@H]43)c21` [Example 28], in the data set with HIV-IIIb, the inhibition at 0.01 µM amounted to 99% and the inhibition at 0.2 µM is 99%. In data set [1], this compound showed a CC50 at 5 days of 16.5 µM.
Consider `CC1(S(=O)(=O)Nc2nn(CC(F)(F)F)c3c(-c4ccc(C#CC(C)(C)S(=O)(=O)C5CC5)nc4[C@H](Cc4cc(F)cc(F)c4)NC(=O)Cn4nc(C(F)(F)F)c5c4C(F)(F)[C@@H]4C[C@H]54)ccc(Cl)c23)CC1` [Example 29], for which, in the data set on HIV-IIIb, the inhibition at 0.01 µM was found to be 100% and the inhibition at 0.2 µM was found to be 100%. This compound also yielded a cytotoxic concentration (CC50) at 5 days in data set [1] of more than 57.1 µM.
As for `Cn1nc(Nc2nnc(C(F)F)o2)c2c(Cl)ccc(-c3ccc(C#CC(C)(C)S(=O)(=O)C4CC4)nc3[C@H](Cc3cc(F)cc(F)c3)NC(=O)Cn3nc(C(F)F)c4c3C(F)(F)[C@@H]3C[C@H]43)c21` [Example 30], in the data set on HIV-IIIb, the inhibition at 0.01 µM amounted to 99% and the inhibition at 0.2 µM came to 99%. The compound further registered a half-maximal cytotoxic concentration (CC50) at 5 days in data set [1] of more than 57.1 µM.
`CC1(S(=O)(=O)Nc2nn(CC(F)(F)F)c3c(-c4ccc(C#CC(C)(C)S(=O)(=O)C5CC5)nc4[C@H](Cc4cc(F)cc(F)c4)NC(=O)Cn4nc(C(F)F)c5c4C(F)(F)CCC5(F)F)ccc(Cl)c23)CC1` [Example 31]: in the data set with HIV-IIIb, the inhibition at 0.01 µM was found to be 97% and the inhibition at 0.2 µM stood at 98%. Also, the CC50 at 5 days in data set [1] was more than 57.1 µM.
For the compound `CC1(S(=O)(=O)Nc2nn(CC(F)(F)F)c3c(-c4ccc(C#CC(C)(C)S(=O)(=O)C5(C)CC5)nc4[C@H](Cc4cc(F)cc(F)c4)NC(=O)Cn4nc(C(F)(F)F)c5c4C(F)(F)[C@@H]4C[C@H]54)ccc(Cl)c23)CC1` [Example 32], in the data set with HIV-IIIb, the inhibition at 0.01 µM is 100% and the inhibition at 0.2 µM worked out at 100%. The compound also came in with a CC50 at 5 days in data set [1] of more than 57.1 µM.
As for `CC(C)(C#Cc1ccc(-c2ccc(Cl)c3c(NS(=O)(=O)C4CC4)nn(CC(F)F)c23)c([C@H](Cc2cc(F)cc(F)c2)NC(=O)Cn2nc(C(F)F)c3c2C(F)(F)CCC3(F)F)n1)S(=O)(=O)C1CC1` [Example 33], in the data set on HIV-IIIb, the inhibition at 0.01 µM is 97% and the inhibition at 0.2 µM is 97%. The compound also came in with a CC50 at 5 days in data set [1] of more than 57.1 µM.
With `Cn1nc(NS(=O)(=O)C2(C)CC2)c2c(Cl)ccc(-c3ccc(C#CC(C)(C)S(=O)(=O)C4CC4)nc3[C@H](Cc3cc(F)cc(F)c3)NC(=O)Cn3nc(C(F)F)c4c3C(F)(F)CCC4(F)F)c21` [Example 34], in the data set with HIV-IIIb, the inhibition at 0.01 µM is 89% and the inhibition at 0.2 µM stood at 90%. Moreover, the CC50 at 5 days in data set [1] is more than 57.1 µM.
For `CC(C)(C#Cc1ccc(-c2ccc(Cl)c3c(NS(=O)(=O)C4CC4)nn(CC(F)(F)F)c23)c([C@H](Cc2cc(F)cc(F)c2)NC(=O)Cn2nc(C(F)F)c3c2C(F)(F)[C@@H]2C[C@H]32)n1)S(=O)(=O)C1CC1` [Example 35], in the data set with HIV-IIIb, the inhibition at 0.01 µM was 97% and the inhibition at 0.2 µM was 97%. Further, in data set [1], the CC50 at 5 days was more than 57.1 µM.
Turning to `CC(C)(C#Cc1ccc(-c2ccc(Cl)c3c(NS(=O)(=O)C4CC4)nn(CC(F)(F)F)c23)c([C@H](Cc2cc(F)cc(F)c2)NC(=O)Cn2nc(C(F)(F)F)c3c2C(F)(F)[C@@H]2C[C@H]32)n1)S(=O)(=O)C1CC1` [Example 36], in the data set on HIV-IIIb, the inhibition at 0.01 µM worked out at 93% and the inhibition at 0.2 µM amounted to 93%. The CC50 at 5 days in data set [1] is more than 57.1 µM.
Turning to `CC1(S(=O)(=O)Nc2nn(CC(F)F)c3c(-c4ccc(C#CC(C)(C)S(=O)(=O)C5CC5)nc4[C@H](Cc4cc(F)cc(F)c4)NC(=O)Cn4nc(C(F)F)c5c4C(F)(F)CCC5(F)F)ccc(Cl)c23)CC1` [Example 37], in the data set with HIV-IIIb, the inhibition at 0.01 µM is 92% and the inhibition at 0.2 µM stood at 92%. In addition, the CC50 at 5 days in data set [1] is more than 57.1 µM.
`Cn1nc(NS(C)(=O)=O)c2c(Cl)ccc(-c3ccc(C#CC(C)(C)S(=O)(=O)C4CC4)nc3[C@H](Cc3cc(F)cc(F)c3)NC(=O)Cn3nc(C(F)F)c4c3C(F)(F)CCC4(F)F)c21` [Example 38]: in the data set with HIV-IIIb, the inhibition at 0.01 µM turned out to be 93% and the inhibition at 0.2 µM worked out at 93%. This compound showed a cytotoxic concentration (CC50) at 5 days in data set [1] of more than 57.1 µM.
On to `Cn1nc(NS(=O)(=O)C2CC2)c2c(Cl)ccc(-c3ccc(C#CC(C)(C)S(=O)(=O)C4CC4)nc3[C@H](Cc3cc(F)cc(F)c3)NC(=O)Cn3nc(C(F)F)c4c3C(F)(F)CCC4(F)F)c21` [Example 39], for which, in the data set with HIV-IIIb, the inhibition at 0.01 µM was 99% and the inhibition at 0.2 µM came out at 99%. This compound also came in with a CC50 at 5 days in data set [1] of more than 57.1 µM.
In the case of `Cn1nc(NS(=O)(=O)C2CC2)c2cccc(-c3ccc(C#CC(C)(C)S(=O)(=O)C4CC4)nc3[C@H](Cc3cc(F)cc(F)c3)NC(=O)Cn3nc(C(F)F)c4c3C(F)(F)[C@@H]3C[C@H]43)c21` [Example 40], in the data set with HIV-IIIb, the inhibition at 0.01 µM was found to be 84% and the inhibition at 0.2 µM was 84%. In addition, the CC50 at 5 days in data set [1] is more than 57.1 µM.
For `CC(C)(C#Cc1ccc(-c2ccc(Cl)c3c(NS(=O)(=O)C4CC4)nn(C4COC4)c23)c([C@H](Cc2cc(F)cc(F)c2)NC(=O)Cn2nc(C(F)F)c3c2C(F)(F)[C@@H]2C[C@H]32)n1)S(=O)(=O)C1CC1` [Example 41], in the data set on HIV-IIIb, the inhibition at 0.01 µM amounted to 100% and the inhibition at 0.2 µM turned out to be 100%. In data set [1], the CC50 at 5 days was more than 57.1 µM.
